Measured values reported in ChEMBL document CHEMBL1201862, “PubChem BioAssay data set” (2004).
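Briefly, cells in 96-well plates were exposed to five compound concentrations for 48 h, and endpoints were estimated by linear interpolation. GI50 = concentration required for 50% inhibition of growth.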 The source made the active and inactive calls. Cut-off read from the data, not from the text of the source: active = GI50 up to about 1.1 µM and inactive = higher.

Assays:
Assay in all cases: inhibition of tumour cell growth, NCI panel, 48 h
[1] = system: SN12C
[2] = system: HOP-62
[3] = system: LOX IMVI
[4] = system: CAKI-1
[5] = system: HCT-116
[6] = system: K562
[7] = system: COLO 205
[8] = system: MDA-N
[9] = system: MDA-MB-435
[10] = system: IGROV-1
[11] = system: BT-549
[12] = system: NCI-H460
[13] = system: OVCAR-8
[14] = system: HCC 2998
[15] = system: 786-0
[16] = system: NCI-H226
[17] = system: SNB-19
[18] = system: OVCAR-4
[19] = system: TK-10
[20] = system: HCT-15
[21] = system: UACC-62
[22] = system: T47D
[23] = system: UO-31
[24] = system: PC-3
[25] = system: SK-MEL-5
[26] = system: UACC-257
[27] = system: A549
[28] = system: A498
[29] = system: EKVX
[30] = system: OVCAR-3
[31] = system: SW-620
[32] = system: HT-29
[33] = system: SK-MEL-28
[34] = system: SF-539
[35] = system: MCF7
[36] = system: SNB-75
[37] = system: Hs-578T
[38] = system: OVCAR-5
[39] = system: RPMI-8226
[40] = system: Malme-3M
[41] = system: SR
[42] = system: NCI-H522
[43] = system: U-251
[44] = system: ACHN
[45] = system: MOLT-4
[46] = system: SF-268
[47] = system: NCI/ADR-RES
[48] = system: M14
[49] = system: MDA-MB-231
[50] = system: KM12
[51] = system: SF-295
[52] = system: SK-OV-3
[53] = system: DU-145
[54] = system: SK-MEL-2
[55] = system: NCI-H23
[56] = system: HL-60
[57] = system: RXF 393
[58] = system: CCRF-CEM
[59] = system: HOP-92

COC(=O)c1ccc2[nH]c3c(c2c1)CC(=O)Nc1ccccc1-3
GI50 [1]: > 100 µM (inactive)
GI50 [2]: 24.3 µM (inactive)
GI50 [3]: > 100 µM (inactive)
GI50 [4]: 56 µM (inactive)
GI50 [5]: > 100 µM (inactive)
GI50 [6]: 27.4 µM (inactive)
GI50 [7]: > 100 µM (inactive)
GI50 [8]: > 100 µM (inactive)
GI50 [9]: > 100 µM (inactive)
GI50 [10]: 44.2 µM (inactive)
GI50 [11]: 1.86 µM (inactive)
GI50 [12]: > 100 µM (inactive)
GI50 [13]: 5.9 µM (inactive)
GI50 [14]: > 100 µM (inactive)
GI50 [15]: > 100 µM (inactive)
GI50 [16]: 7.31 µM (inactive)
GI50 [17]: > 100 µM (inactive)
GI50 [18]: 0.673 µM (active)
GI50 [19]: 83.9 µM (inactive)
GI50 [20]: > 100 µM
GI50 [21]: > 100 µM (inactive)
GI50 [22]: > 100 µM (inactive)
GI50 [23]: 0.0278 µM (active)
GI50 [24]: > 100 µM (inactive)
GI50 [25]: > 100 µM (inactive)
GI50 [26]: > 100 µM (inactive)
GI50 [27]: > 100 µM (inactive)
GI50 [28]: > 100 µM (inactive)
GI50 [29]: 26.2 µM (inactive)
GI50 [30]: > 100 µM (inactive)
GI50 [31]: > 100 µM (inactive)
GI50 [32]: > 100 µM (inactive)
GI50 [33]: > 100 µM (inactive)
GI50 [34]: 2.94 µM (inactive)
GI50 [35]: > 100 µM (inactive)
GI50 [36]: 2.3 µM (inactive)
GI50 [37]: > 100 µM (inactive)
GI50 [38]: 60.3 µM (inactive)
GI50 [39]: > 100 µM (inactive)
GI50 [40]: > 100 µM (inactive)
GI50 [41]: 7.28 µM (inactive)
GI50 [42]: > 100 µM (inactive)
GI50 [43]: 6.68 µM (inactive)
GI50 [44]: > 100 µM (inactive)
GI50 [45]: 1.31 µM (inactive)
GI50 [46]: 9.18 µM (inactive)
GI50 [47]: > 100 µM (inactive)
GI50 [48]: 35.8 µM (inactive)
GI50 [49]: 12.4 µM (inactive)
GI50 [50]: > 100 µM (inactive)
GI50 [51]: > 100 µM (inactive)
GI50 [52]: 41.7 µM (inactive)
GI50 [53]: 45.7 µM (inactive)
GI50 [54]: > 100 µM (inactive)

COc1cc(CN(C)N2C(=O)c3cccc4cc([N+](=O)[O-])cc(c34)C2=O)cc(OC)c1OC
GI50 [1]: > 100 µM (inactive)
GI50 [2]: 16.7 µM (inactive)
GI50 [4]: > 100 µM (inactive)
GI50 [6]: > 100 µM (inactive)
GI50 [7]: > 100 µM (inactive)
GI50 [8]: > 100 µM (inactive)
GI50 [9]: > 100 µM (inactive)
GI50 [10]: > 100 µM (inactive)
GI50 [11]: > 100 µM (inactive)
GI50 [12]: > 100 µM (inactive)
GI50 [13]: > 100 µM (inactive)
GI50 [16]: 58.1 µM (inactive)
GI50 [17]: > 100 µM (inactive)
GI50 [18]: > 100 µM (inactive)
GI50 [55]: > 100 µM (inactive)
GI50 [20]: > 100 µM
GI50 [21]: > 100 µM (inactive)
GI50 [22]: > 100 µM (inactive)
GI50 [23]: > 100 µM (inactive)
GI50 [24]: > 100 µM (inactive)
GI50 [25]: > 100 µM (inactive)
GI50 [28]: > 100 µM (inactive)
GI50 [56]: > 100 µM (inactive)
GI50 [57]: 14.1 µM (inactive)
GI50 [30]: > 100 µM (inactive)
GI50 [58]: > 100 µM (inactive)
GI50 [32]: > 100 µM (inactive)
GI50 [33]: > 100 µM (inactive)
GI50 [35]: > 100 µM (inactive)
GI50 [36]: 25.2 µM (inactive)
GI50 [37]: 44.1 µM (inactive)
GI50 [38]: > 100 µM (inactive)
GI50 [39]: > 100 µM (inactive)
GI50 [40]: > 100 µM (inactive)
GI50 [41]: > 100 µM (inactive)
GI50 [42]: 70.3 µM (inactive)
GI50 [43]: > 100 µM (inactive)
GI50 [45]: 27.6 µM (inactive)
GI50 [47]: > 100 µM (inactive)
GI50 [48]: > 100 µM (inactive)
GI50 [49]: 81.3 µM (inactive)
GI50 [50]: > 100 µM (inactive)
GI50 [59]: > 100 µM (inactive)
GI50 [51]: 54.6 µM (inactive)
GI50 [52]: 44.1 µM (inactive)
GI50 [53]: > 100 µM (inactive)
GI50 [54]: > 100 µM (inactive)

N#Cc1nc(C2CC2)oc1N
GI50 [1]: > 100 µM (inactive)
GI50 [2]: > 100 µM (inactive)
GI50 [3]: > 100 µM (inactive)
GI50 [4]: > 100 µM (inactive)
GI50 [5]: > 100 µM (inactive)
GI50 [6]: > 100 µM (inactive)
GI50 [7]: > 100 µM (inactive)
GI50 [8]: > 100 µM (inactive)
GI50 [9]: > 100 µM (inactive)
GI50 [10]: > 100 µM (inactive)
GI50 [11]: > 100 µM (inactive)
GI50 [13]: > 100 µM (inactive)
GI50 [14]: > 100 µM (inactive)
GI50 [15]: > 100 µM (inactive)
GI50 [16]: > 100 µM (inactive)
GI50 [17]: > 100 µM (inactive)
GI50 [18]: > 100 µM (inactive)
GI50 [55]: > 100 µM (inactive)
GI50 [19]: > 100 µM (inactive)
GI50 [20]: > 100 µM
GI50 [21]: > 100 µM (inactive)
GI50 [22]: > 100 µM (inactive)
GI50 [24]: > 100 µM (inactive)
GI50 [26]: > 100 µM (inactive)
GI50 [27]: > 100 µM (inactive)
GI50 [57]: > 100 µM (inactive)
GI50 [29]: > 100 µM (inactive)
GI50 [30]: > 100 µM (inactive)
GI50 [31]: > 100 µM (inactive)
GI50 [58]: 38.4 µM (inactive)
GI50 [32]: > 100 µM (inactive)
GI50 [33]: > 100 µM (inactive)
GI50 [34]: > 100 µM (inactive)
GI50 [35]: > 100 µM (inactive)
GI50 [36]: > 100 µM (inactive)
GI50 [37]: > 100 µM (inactive)
GI50 [38]: > 100 µM (inactive)
GI50 [39]: > 100 µM (inactive)
GI50 [40]: 94.4 µM (inactive)
GI50 [41]: > 100 µM (inactive)
GI50 [42]: 25.2 µM (inactive)
GI50 [43]: > 100 µM (inactive)
GI50 [44]: > 100 µM (inactive)
GI50 [45]: > 100 µM (inactive)
GI50 [46]: > 100 µM (inactive)
GI50 [47]: > 100 µM (inactive)
GI50 [48]: > 100 µM (inactive)
GI50 [49]: > 100 µM (inactive)
GI50 [50]: 25.7 µM (inactive)
GI50 [59]: > 100 µM (inactive)
GI50 [51]: > 100 µM (inactive)
GI50 [52]: > 100 µM (inactive)
GI50 [53]: > 100 µM (inactive)
GI50 [54]: > 100 µM (inactive)
